From ChEMBL document CHEMBL4673349, “Trichodestruxins A-D: Cytotoxic Cyclodepsipeptides from the Endophytic Fungus Trichoderma harzianum” (J Nat Prod, 2020)
Structures can show the parent of a compound that is named as a salt.

Columns and labels:
Assay type in all cases: functional, cell-based
HT-29 = experiment: Cytotoxicity against human HT-29 cells assessed as reduction in cell viability after 72 hrs by MTT assay; conditions: HT-29, 72 h
A549 = experiment: Cytotoxicity against human A549 cells assessed as reduction in cell viability after 72 hrs by MTT assay; conditions: A549, 72 h
P388 = experiment: Cytotoxicity against mouse p388 cells assessed as reduction in cell viability after 72 hrs by MTT assay; conditions: P388, 72 h

SMILES: COc1cccc2c1C(=O)c1c(O)c3c(c(O)c1C2=O)C[C@@](O)(C(=O)CO)C[C@@H]3O[C@H]1C[C@H](N)[C@H](O)[C@H](C)O1 [DOXORUBICIN HYDROCHLORIDE]
- IC50 (HT-29): 1.8 µM
- IC50 (A549): 2.3 µM
- IC50 (P388): 0.3 µM

SMILES: C=CC[C@H]1OC(=O)CCNC(=O)[C@H](C)N(C)C(=O)[C@H](C(C)C)N(C)C(=O)[C@H](C(C)C)NC(=O)[C@@H]2[C@@H](C)CCN2C1=O
- IC50 (HT-29): 7.8 µM
- IC50 (A549): 15.6 µM
- IC50 (P388): 17 µM

SMILES: CC(C)C[C@H]1OC(=O)CCNC(=O)[C@H](C)NC(=O)[C@H](C(C)C)N(C)C(=O)[C@H](C(C)C)NC(=O)[C@@H]2[C@@H](C)CCN2C1=O
- IC50 (HT-29): > 20 µM
- IC50 (A549): 17.5 µM
- IC50 (P388): > 20 µM

SMILES: CC(C)[C@@H]1NC(=O)[C@@H]2[C@@H](C)CCN2C(=O)[C@@H](C[C@@H](O)CO)OC(=O)CCNC(=O)[C@H](C)N(C)C(=O)[C@H](C(C)C)N(C)C1=O
- IC50 (HT-29): 16.7 µM
- IC50 (A549): 8.8 µM
- IC50 (P388): 19.1 µM

SMILES: CC(C)C[C@H]1OC(=O)CCNC(=O)[C@H](C)N(C)C(=O)[C@H](C(C)C)N(C)C(=O)[C@H](C(C)C)NC(=O)[C@@H]2[C@@H](C)CCN2C1=O
- IC50 (HT-29): 3.4 µM
- IC50 (A549): 10.3 µM
- IC50 (P388): 8.4 µM
